Laboratory results reported in patent publication US20070231373A1, “Transdermal Steriod for Formulation” (HUNTER-FLEMING LIMITED, priority 2004, published 2007).

Experiment: Permeation behaviour through excised rat skin in Franz type cell
Format: in vitro ADME, Wistar rats
Conditions: conclusion from comparison with estradiol
Procedure: The materials used were as follows:
The excised abdominal rat skin was mounted on a Franz type cell (receiver volume: 3ml) with a water jacket connected to a water bath at 37° C. The patch was adhered to the stratum comeum side of the skin. The receiver compartment was filled with a mixture of PEG400 and water (1:3 by volume) and stirred with a star head magnetic bead driven by a constant speed motor. At predetermined times, 100 μl of sample was withdrawn from the receiver compartment, and the same volume of receptor solution was added to keep the volume constant. The drug concentration was analysed by HPLC.
For all adhesives, the amount of the drug which had permeated increased steadily with time.

Row | SMILES | skin permeability (in words)
1 | CC12CCC3C(C1CCC2=O)[C@@H](O)C[C@H]1C[C@@H](O)CCC31C (stereo partly drawn) [7β-OH EPIA, 7β-hydroxy-epiandrosterone] | potential skin permeability
2 | C[C@]12CCC(=O)C=C1CC[C@@H]1[C@@H]2[C@@H](O)C[C@]2(C)C(=O)CC[C@@H]12 [HAD, 11β-hydroxy-4-androstene-3,17-dione] | potential skin permeability
